According to patent publication US20090163481A1, “PPAR-DELTA LIGANDS AND METHODS OF THEIR USE” (priority 2007, published 2009):
Like-named read-outs stand apart in the source and are kept apart here.

Legend:
[1] = target: T1, ligand binding domain of PPAR delta (Homo sapiens, UniProt Q03181); assay: LANTHA SCREEN TR-FRET PPARδ Competitive Binding Assay
T1 construct: purchased Invitrogen
T1 sequence (Q03181 211-439 limits assumed): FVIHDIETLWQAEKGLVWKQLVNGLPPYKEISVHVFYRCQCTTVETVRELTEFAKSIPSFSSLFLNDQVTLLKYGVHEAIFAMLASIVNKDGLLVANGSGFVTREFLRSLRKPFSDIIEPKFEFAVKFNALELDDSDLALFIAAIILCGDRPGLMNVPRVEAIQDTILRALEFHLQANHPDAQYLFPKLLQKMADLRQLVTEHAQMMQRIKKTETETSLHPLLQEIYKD
Description: The LANTHA SCREEN™ TR-FRET PPARδ Competitive Binding Assay was conducted for a variety of compounds according to the instructions provided by the manufacturer (Invitrogen). In addition, proliferation assays were conducted. In Table 2, “Prolif IC50” is the concentration that inhibits cell viability (or growth) by 50% relative to a vehicle control, and “TR-F binding IC50 (μM)” is the concentration that competes binding by a labeled pan-agonist to the ligand binding domain of PPAR delta, by 50%.

MMP-9 = assay: Gelatin zymogel analysis of MMP-9 activity in PC-3 cells; type: cell-based, human; details: PC-3, 16 h; VLDL 2 μg/ml + LPL 2 μg/ml and/or 10 μM SR13904
Description: Zymogel studies were performed to determine whether PPARδ could regulate MMP-9 expression/activity in prostate cancer cells. Over-expression of MMP-9 is directly linked to metastatic prostate cancer, at least in part through mitogen/extracellular-signal-regulated kinase kinase 5/extracellular signal-regulated kinase-5 (MEK5/ERK5). An increase in MMP-9 activity in VLDL-treated PC-3 cells was observed (see FIG. 7), and this activation was attenuated by co-incubation with SR 13904.
Referring to FIG. 7, PC-3 cultures were treated with ligands (2 μg/ml VLDL+2 μg/ml LPL and/or 10 μM SR13904) for 16 h prior to harvesting of cells (for cell counting) and collection and concentration of conditioned media. Loading was based on equal cell numbers, corresponding closely to equal loading volumes.

PPARδ = target: T2, PPARδ (Homo sapiens, UniProt Q03181); assay: PPRE promoter/luciferase reporter (transactivation) assay in U2-OS cells; type: cell-based
T2 construct: expressed in transfected cells; host or cells: U2-OS (human bone cancer line)
T2 sequence (Q03181 1-441): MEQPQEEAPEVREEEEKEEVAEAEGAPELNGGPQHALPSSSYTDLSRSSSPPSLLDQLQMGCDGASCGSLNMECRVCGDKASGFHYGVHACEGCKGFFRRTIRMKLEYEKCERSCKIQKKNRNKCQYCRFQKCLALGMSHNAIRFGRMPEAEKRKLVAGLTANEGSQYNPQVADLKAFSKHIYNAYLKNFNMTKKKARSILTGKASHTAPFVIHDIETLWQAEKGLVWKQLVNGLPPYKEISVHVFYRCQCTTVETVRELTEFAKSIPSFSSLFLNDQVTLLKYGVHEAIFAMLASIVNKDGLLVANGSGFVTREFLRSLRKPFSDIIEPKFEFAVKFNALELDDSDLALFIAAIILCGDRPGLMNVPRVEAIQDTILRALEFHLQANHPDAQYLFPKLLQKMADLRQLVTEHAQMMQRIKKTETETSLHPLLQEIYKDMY
Description: General Testing Procedures. Each ligand was screened for PPARδ binding and transactivation activity through the use of two complementary reporter assays as described below. In both systems, transfection efficiency was standardized by co-transfection of a control Renilla luciferase. U2-OS (human bone cancer line) cells were used for both assays because this is the cell line of choice for screening PPAR ligands. At 18 h post-transfection, GW 501, with and without the ligands of the disclosure, was added to the cells and incubated for an additional 24 h. The cells were then harvested and luciferase activities profiled.
A promoter/luciferase reporter assay. This assay involves co-transfection of a PPARδ expression vector and a plasmid containing a luciferase gene under the control of PPARδ responsive DNA element (three copies of a consensus PPAR response element, PPRE). This assay was used to directly test ligand effects on PPARδ-responsive genes.
Referring to FIG. 3, U2-OS cells were transiently transfected with appropriate expression and reporter vectors. Ligands were added to the cell cultures 24 h post-transfection and incubated for an additional 16 h. Lipoprotein lipase (LPL; 2 μg/ml) was added with VLDL (5 μg/ml) to release PPARδ-active triglycerides. FIG. 3A: PPARδ LBD/Gal4/UAS-tk-luc competition assays with VLDL SR13904 (0-10 μM). The reporter activation (fold increase over blank) is presented relative to GW501516 at 7 nM (fold increase over blank=100). FIG. 3B: PPRE reporter assays using 0, 1, and 10 μM SR13904+VLDL. All assays were repeated in triplicate.

SMILES: Cc1cc(SCc2sc(-c3cccc4ccccc34)nc2C)ccc1OCC(=O)O [SR 13904]
- IC50 ([1]; competes binding by a labeled pan-agonist by 50%, * = determined by approximation from a semi log graph, read-out: TR-F binding IC50): 2400 nM
- IC50 ([1]; repeat determination of TR-F binding IC50, read-out: repeat TR-F): 2100 nM
- MMP-9 activity (MMP-9): attenuated
- inhibition of PPARδ-mediated transactivation (PPARδ): appear to inhibit
- reporter expression via PPRE in combination with GW 501 (PPARδ; 1 μM ligand): significantly decreased
- reporter expression via PPRE in combination with GW 501 (PPARδ; 10 μM ligand): completely inhibited
- transcription activation of the PPRE reporter to GW501 (PPARδ; 1 and 10 μM ligand with GW501): completely eliminated
- VLDL-related activation of the PPAR promoter element (PPRE) construct (PPARδ; co-treatment with 1 μM): completely block
